# “And” between values parts separate entries of the source, which are not always exact repeats. Equal entries are not always repeated.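 Briefly, cells in 96-well plates were exposed to five compound concentrations for 48 h, and endpoints were estimated by linear interpolation. GI50: concentration for 50% inhibition of growth. TGI denotes the concentration required for complete inhibition of growth.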
# Key:
# Assay in all cases: inhibition of tumour cell growth, NCI panel, 48 h
# OVCAR-5 ovarian = test system: OVCAR-5 ovarian
# SW-620 colon = test system: SW-620 colon
# RXF 393 renal = test system: RXF 393 renal
# SK-MEL-5 melanoma = test system: SK-MEL-5 melanoma
# SNB-19 CNS = test system: SNB-19 CNS
# NCI-H522 lung = test system: NCI-H522 lung
# MCF7 breast = test system: MCF7 breast
# SF-539 CNS = test system: SF-539 CNS
# MALME-3M melanoma = test system: MALME-3M melanoma
# BT-549 breast = test system: BT-549 breast
Structure (SMILES),TGI (OVCAR-5 ovarian) [µM],TGI (SW-620 colon) [µM],TGI (RXF 393 renal) [µM],TGI (SK-MEL-5 melanoma) [µM],TGI (SNB-19 CNS) [µM],TGI (NCI-H522 lung) [µM],TGI (MCF7 breast) [µM],TGI (SF-539 CNS) [µM],TGI (MALME-3M melanoma) [µM],TGI (BT-549 breast) [µM],GI50 (OVCAR-5 ovarian) [µM],GI50 (SW-620 colon) [µM],GI50 (RXF 393 renal),GI50 (SK-MEL-5 melanoma) [µM],GI50 (SNB-19 CNS) [µM],GI50 (NCI-H522 lung),GI50 (MCF7 breast) [µM],GI50 (SF-539 CNS),GI50 (MALME-3M melanoma) [µM]
O=C1OC[C@@H]2Cc3c([nH]c4ccccc34)[C@@H](c3ccc(O)cc3)N12,> 100,> 100,64.3,33.2,> 100,77.6,> 100,> 74,85.1,–,–,–,–,–,–,–,–,–,–
CCOC(=O)c1c(SCCN2CCCC2)n(-c2ccccc2)c(=S)n(-c2ccccc2)c1=O,> 59.5,7.58,3.36,10,31.2,4.08,3.36,4.86,3.36,13.9,–,–,–,–,–,–,–,–,–
CC(C)=CC1C(C(=O)O)C1(C)C (centres undefined),> 750,> 750,> 750,> 750,> 750,> 750,> 750,> 750,> 750,–,–,–,–,–,–,–,–,–,–
CCOC(=O)C1C(=O)CC(O)(c2ccccc2)C(C(=O)OCC)C1c1ccc(OC)cc1 (centres undefined),> 100,> 74.3,50.5,> 100,> 72.5,38.2,> 100,40.9,> 100,> 100,–,–,–,–,–,–,–,–,–
CC1=CC(=O)N(n2c(C)n[nH]c2=O)C1=O,> 100,> 100,> 100,> 100,> 100,> 100,> 100,> 100,> 100,> 100,–,–,–,–,–,–,–,–,–
Cc1cc2cccc(Cl)c2nc1C(=O)c1ccccc1,> 100,> 100,> 100,> 100,> 100,> 100,–,> 100,> 100,–,–,–,–,–,–,–,–,–,–
CC1CC(C#N)=C2NCCCCN2C1=O (centres undefined),–,> 100,> 100,> 100,> 100,> 100,> 100,> 100,> 100,> 100,–,–,–,–,–,–,–,–,–
COc1cc([C@@H]2c3cc4c(cc3C[C@H]3COC(=O)[C@@H]32)OCO4)cc(OC)c1OC,> 50,> 50,> 50,> 7.93,> 7.93,0.00689,2.03,0.00812,> 50,–,0.00692,0.00336,0.00723 µM and 0.0157 µM,0.00397,0.00666,0.003 µM and 0.00924 µM,0.00506,0.00279 µM and 0.0062 µM,0.00681
O=C1NC(=S)NC(=O)C1C(c1ccccc1[N+](=O)[O-])C1C(=O)NC(=S)NC1=O,> 100,> 100,> 100,> 100,> 100,> 100,> 100,–,> 100,> 100,–,–,–,–,–,–,–,–,–
Cc1oc2nc(N(C)C)n3nnnc3c2c1C,> 100,> 100,> 100,> 100,> 100,> 100,> 100,> 100,–,> 100,–,–,–,–,–,–,–,–,–
O=c1c2cc(I)ccc2[nH]c(=S)n1Cc1ccccc1,> 100,> 100,78,> 100,98.9,42.9,> 100,33.4,–,44.6,–,–,–,–,–,–,–,–,–
CCOC(=O)c1cnc2[nH]ccn2c1=O,> 10,> 10,> 10,> 10,> 10,–,> 10,> 10,> 10,> 10,–,–,–,–,–,–,–,–,–
COC(=O)C1CC(C=[N+](C)C)=C(SC)N1 (centres undefined),> 100,> 100,> 100,> 100,> 100,> 100,> 100,–,> 100,> 100,–,–,–,–,–,–,–,–,–
NCCCC(N)C(=O)O (centres undefined),> 100,> 100,> 100,> 100,> 100,> 100,> 100,–,> 100,> 100,–,–,–,–,–,–,–,–,–
CN(O)C(=O)Cc1ccc(OCc2cccc(Cl)c2)cc1,> 100,> 100,> 100,> 100,> 100,> 100,> 100,> 100,–,> 100,–,–,–,–,–,–,–,–,–
Cc1cccc(N(CCC#N)S(=O)(=O)c2ccccc2)c1,> 100,> 100,–,> 100,> 100,> 100,> 100,> 100,> 100,> 100,–,–,–,–,–,–,–,–,–
CCOC(=O)C(=O)N1C(C)=C(C(=O)OCC)CC(C(=O)OCC)=C1C,> 100,> 100,> 100,> 100,> 100,> 100,> 100,> 100,> 100,–,–,–,–,–,–,–,–,–,–
CC(C)(CO)N1C(=O)c2ccccc2C1(O)c1ccc(Cl)cc1 (centres undefined),> 100,> 100,> 100,> 100,> 100,> 100,> 100,–,> 100,> 100,–,–,–,–,–,–,–,–,–
CN1CCN(C(=S)N(C)C(=O)c2ccc(Cl)cc2)CC1,> 100,> 100,> 100,> 100,> 100,> 100,> 100,–,> 100,> 100,–,–,–,–,–,–,–,–,–
CCn1c(=O)c2c3cc(O)ccc3oc2c2ccc(O)cc21,–,> 100,> 100,> 100,> 100,63.9,> 100,73,> 100,76.7,–,–,–,–,–,–,–,–,–
COC1C=CC23c4cc5c(cc4C(O)OC2CN(C)C3C1)OCO5 (centres undefined),39.9,11.6,–,1.65,7.36,7,–,3.65,6.49,–,–,–,–,–,–,–,–,–,–
COc1cccc(C2c3cc4c(cc3OC(N3CCCC3)C2C)OCO4)c1OC (centres undefined),17.9,18.8,–,12.5,5.33,25.5,> 100,16.2,–,–,–,–,–,–,–,–,–,–,–
C=CCCCC12CCCc3cccc(c31)NC2=O (centres undefined),43.5,41.8,42.8,34.2,61.9,31.3,–,47.4,30.2,–,–,–,–,–,–,–,–,–,–
CN1CN(c2ccccc2)C2(CCN(CCCC3(c4cccs4)OCCO3)CC2)C1=O,> 100,> 100,> 100,> 100,> 100,> 100,> 100,> 100,> 100,–,–,–,–,–,–,–,–,–,–

Structure (SMILES),TGI (OVCAR-5 ovarian) [µM],TGI (SW-620 colon) [µM],TGI (RXF 393 renal) [µM],TGI (SK-MEL-5 melanoma) [µM],TGI (SNB-19 CNS) [µM],TGI (NCI-H522 lung) [µM],TGI (MCF7 breast) [µM],TGI (SF-539 CNS) [µM],TGI (MALME-3M melanoma) [µM],TGI (BT-549 breast) [µM],GI50 (OVCAR-5 ovarian) [µM],GI50 (SW-620 colon) [µM],GI50 (RXF 393 renal),GI50 (SK-MEL-5 melanoma) [µM],GI50 (SNB-19 CNS) [µM],GI50 (NCI-H522 lung),GI50 (MCF7 breast) [µM],GI50 (SF-539 CNS),GI50 (MALME-3M melanoma) [µM]
CCN(CCCN(CC)C(=O)N[C@@H](Cc1ccccc1)C(=O)NC)C(=O)N[C@@H](Cc1ccccc1)C(=O)NC,> 100,> 100,> 100,> 100,> 100,> 100,–,> 100,> 100,> 100,–,–,–,–,–,–,–,–,–
O=C1CC(c2ccc([N+](=O)[O-])cc2)C2(C(=O)NC(=S)NC2=O)C(c2ccc([N+](=O)[O-])cc2)C1 (centres undefined),87.4,> 100,–,99.1,43.5,36.4,43.8,> 100,32.2,34.1,–,–,–,–,–,–,–,–,–
CC(C)c1c(P(=O)(c2ccccc2)c2ccccc2)n(C)c2ccccc12,> 100,> 100,–,–,> 100,> 100,> 100,> 100,> 100,> 100,–,–,–,–,–,–,–,–,–
C(=Nc1ccc(-c2nc3ccccc3s2)cc1)c1ccco1,> 100,> 100,> 100,> 100,> 100,> 100,–,> 100,> 100,> 100,–,–,–,–,–,–,–,–,–
O=C(CCc1ccc(O)cc1)c1c(O)cc(O)cc1OC1OC(CO)C(O)C(O)C1O (centres undefined),> 100,> 100,–,> 100,–,–,–,> 100,> 100,–,–,–,–,–,–,–,–,–,–
COC(c1ccc(C(C)(C)C)cc1)(c1ccc(C(C)(C)C)cc1)c1cc(C(O)(c2cc(C(OC)(c3ccc(C(C)(C)C)cc3)c3ccc(C(C)(C)C)cc3)c(C)cc2C)c2cc(C(OC)(c3ccc(C(C)(C)C)cc3)c3ccc(C(C)(C)C)cc3)c(C)cc2C)c(C)cc1C,> 100,> 100,> 100,> 100,–,–,> 100,> 100,> 100,> 100,–,–,–,–,–,–,–,–,–
N#Cc1c(OCCF)c2ccccc2n2c1nc1ccccc12,> 100,> 100,> 100,> 100,> 100,> 100,> 100,52.3,–,–,–,–,–,–,–,–,–,–,–
O=C1/C(=C/c2ccc(Br)s2)NC(=S)N1CN1CCOCC1,> 100,> 100,59.7,> 100,> 100,> 100,52.8,–,> 100,> 100,–,–,–,–,–,–,–,–,–
O=c1nc2c(c(-c3cccc(Cl)c3)[nH]1)COC/C2=C\c1cccc(Cl)c1,> 100,> 100,> 100,> 100,> 100,> 100,> 100,> 100,–,> 100,–,–,–,–,–,–,–,–,–
O=C(OCc1ccccc1)OOC(=O)OCc1ccccc1,> 100,> 100,> 100,> 100,> 100,> 100,–,> 100,> 100,–,–,–,–,–,–,–,–,–,–
O=C(O)CNC(=O)c1ccc([As](=O)(O)O)cc1,> 100,> 100,> 100,> 100,> 100,> 100,> 100,–,> 100,> 100,–,–,–,–,–,–,–,–,–
Cc1nc2ccc([N+](=O)[O-])cc2c(=O)n1C(=S)Nc1cccc(Cl)c1,> 100,53.3,40,28.9,> 100,–,49.5,43.1,49.1,–,–,–,–,–,–,–,–,–,–
Cc1nc(Cl)c(CBr)c(Cl)n1,3.84,–,5.03,2.88,11.2,1.15,2.17,3.72,2.92,0.747,–,–,–,–,–,–,–,–,–
CC1=C2c3ccccc3N(C(=O)/C=C/C(=O)O)[C@H]2[C@H]2C(=O)OC(=O)[C@H]2C1,> 10,> 10,> 10,> 10,> 10,> 10,> 10,> 10,> 10,–,–,–,–,–,–,–,–,–,–
N#CC(C#N)=C1CCCS(=O)(=O)c2ccccc21,> 100,> 100,> 100,–,> 100,–,> 100,> 100,–,> 100,–,–,–,–,–,–,–,–,–
CC(C)CCNC(=O)c1ccc(CNC(=O)/C=C/c2ccc(OCc3ccccc3)cc2)cc1,> 100,> 100,> 100,> 100,> 100,–,> 100,–,–,–,–,–,–,–,–,–,–,–,–
CN(C)c1ccc(/C(Br)=C2\OC(=O)c3ccccc32)cc1,> 100,> 100,–,> 100,> 100,–,> 100,> 100,> 100,–,–,–,–,–,–,–,–,–,–
CC(=O)Nc1ccc(Cl)c(Cl)c1,–,> 100,> 100,–,> 100,> 100,–,> 100,> 100,–,–,–,–,–,–,–,–,–,–
Nc1ncnc2c1ncn2C(=O)NC12CC3CC(CC(C3)C1)C2,> 100,> 100,> 100,> 100,> 100,–,> 100,> 100,> 100,> 100,–,–,–,–,–,–,–,–,–
CO/N=C1/c2sccc2[C@H](NC(=O)CNC(=O)OC(C)(C)C)[C@@H]1O,> 100,> 100,> 100,> 100,> 100,–,> 100,> 100,> 100,> 100,–,–,–,–,–,–,–,–,–
O=C1C(Cl)N(c2ccccc2)C1c1c[nH]c2ccccc12 (centres undefined),> 100,> 100,> 100,> 100,> 100,> 100,–,> 100,> 100,–,–,–,–,–,–,–,–,–,–
COc1ccc2c(c1)C(=O)c1ccccc1C2,> 100,> 100,28.4,> 100,> 100,> 100,> 100,> 100,–,> 100,–,–,–,–,–,–,–,–,–
c1ccc2c(c1)CCCN1CCc3ccccc3C21 (centres undefined),> 100,> 100,–,70.9,> 100,> 100,> 100,46.5,> 100,> 100,–,–,–,–,–,–,–,–,–
